Entries after “also recorded” stand apart in the source; their conditions may differ.
Experiments:
[1] = tested on: peptide-pulsed TISI cells; assay: IFN-gamma ELISPOT assay on CTLs induced with peptide; assay type: cell-based, human; conditions: CTLs from HLA-A*2402 positive donor after 3rd peptide stimulation, versus target cells not pulsed with peptide
Description: Monocyte-derived dendritic cells (DCs) were used as antigen-presenting cells to induce cytotoxic T lymphocyte (CTL) responses against peptides presented on human leukocyte antigen (HLA). DCs were generated in vitro as described elsewhere (Nakahara S et al., Cancer Res 2003, 63(14): 4112-8). Specifically, peripheral blood mononuclear cells isolated from a normal volunteer (HLA-A*2402 positive) by Ficoll-Plaque (Pharmacia) solution were separated by adherence to a plastic tissue culture dish (Becton Dickinson) so as to enrich them as the monocyte fraction. The monocyte-enriched population was cultured in the presence of 1000 U/ml of granulocyte-macrophage colony-stimulating factor (R&D System) and 1000 U/ml of interleukin (IL)-4 (R&D System) in AIM-V Medium (Invitrogen) containing 2% heat-inactivated autologous serum (AS). After 7 days of culture, the cytokine-induced DCs were pulsed with 20 micro-g/ml of each of the synthesized peptides in the presence of 3 micro-g/ml of beta 2-microglobulin for 3 hr at 37 degrees C. in AIM-V Medium. The generated cells appeared to express DC-associated molecules, such as CD80, CD83, CD86 and HLA class II, on their cell surfaces (data not shown). These peptide-pulsed DCs were then inactivated by X-irradiated (20 Gy) and mixed at a 1:20 ratio with autologous CD8+ T cells, obtained by positive selection with CD8 Positive Isolation Kit (Dynal). These cultures were set up in 48-well plates (Corning); each well contained 1.5×10^4 peptide-pulsed DCs, 3×10^5 CD8+ T cells and 10 ng/ml of IL-7 (R&D System) in 0.5 ml of AIM-V/2% AS medium. Three days later, these cultures were supplemented with IL-2 (CHIRON) to a final concentration of 20 IU/ml. On day 7 and 14, the T cells were further stimulated with the autologous peptide-pulsed DCs. The DCs were prepared each time by the same way described above. CTL was tested against peptide-pulsed TISI cells after the 3rd round of peptide stimulation on day 21 (Tanaka H et al., Br J Cancer 2001, 84(1): 94-9; Umano Y et al., Br J Cancer 2001, 84(8): 1052-7; Uchida N et al., Clin Cancer Res 2004, 10(24): 8577-86; Suda T et al., Cancer Sci 2006, 97(5): 411-9; Watanabe T et al., Cancer Sci 2005, 96(8): 498-506).
(§1) Specifically, peptide-pulsed TISI (1×10^4/well) was prepared as stimulator cells. Cultured cells in 48 wells were used as responder cells. IFN-gamma ELISPOT assay and IFN-gamma ELISA assay were performed under manufacture procedure.

[2] = tested on: peptide-pulsed TISI cells; assay: IFN-gamma ELISA assay of CTL lines; assay type: cell-based, human; conditions: target cells pulsed with corresponding peptide versus without peptide pulse
Experimental: CTLs were expanded in culture using the method similar to the one described by Riddell et al. (Walter E A et al., N Engl J Med 1995, 333(16): 1038-44; Riddell S R et al., Nat Med 1996, 2(2): 216-23). A total of 5×10^4 CTLs were suspended in 25 ml of AIM-V/5% AS medium with 2 kinds of human B-lymphoblastoid cell lines, inactivated by Mitomycin C, in the presence of 40 ng/ml of anti-CD3 monoclonal antibody (Pharmingen). One day after initiating the cultures, 120 IU/ml of IL-2 were added to the cultures. The cultures were fed with fresh AIM-V/5% AS medium containing 30 IU/ml of IL-2 on days 5, 8 and 11 (Tanaka H et al., Br J Cancer 2001, 84(1): 94-9; Umano Y et al., Br J Cancer 2001, 84(8): 1052-7; Uchida N et al., Clin Cancer Res 2004, 10(24): 8577-86; Suda T et al., Cancer Sci 2006, 97(5): 411-9; Watanabe T et al., Cancer Sci 2005, 96(8): 498-506).
as §1

[3] = tested on: peptide-pulsed TISI cells; assay: IFN-gamma ELISA assay of CTL clone established by limiting dilution; assay type: cell-based, human; conditions: target cells pulsed with peptide versus not pulsed; listed as WDHD1-A24-9-844
Experimental: The dilutions were made to have 0.3, 1, and 3 CTLs/well in 96 round-bottomed micro titer plate (Nalge Nunc International). CTLs were cultured with 1×10^4 cells/well of 2 kinds of human B-lymphoblastoid cell lines, 30 ng/ml of anti-CD3 antibody, and 125 U/ml of IL-2 in a total of 150 micro-l/well of AIM-V Medium containing 5% AS. 50 micro-l/well of IL-2 were added to the medium 10 days later so to reach a final concentration of 125 U/ml IL-2. CTL activity was tested on the 14th day, and CTL clones were expanded using the same method as described above (Uchida N et al., Clin Cancer Res 2004, 10(24): 8577-86; Suda T et al., Cancer Sci 2006, 97(5): 411-9; Watanabe T et al., Cancer Sci 2005, 96(8): 498-506).
as §1

[4] = tested on: COS7 cells transfected with both WDHD1 and HLA-A*2402; assay: Specific CTL activity against target cells expressing WDHD1 and HLA-A*2402; assay type: cell-based, African green monkey; conditions: COS7 expressing both WDHD1 and HLA-A*2402; listed as WDHD1-A24-9-844
Description: (§2) The cDNA encoding an open reading frame of target genes or HLA-A*2402 was amplified by PCR. The PCR-amplified product was cloned into the expression vector. The plasmids were transfected into COS7, which is the target genes and HLA-A*2402-null cell line, using lipofectamine 2000 (Invitrogen) according to the manufacturer's recommended procedures. After 2 days from transfection, the transfected cells were harvested with versene (Invitrogen) and used as the target cells (5×10^4 cells/well) for CTL activity assay.
(§3) The established CTL lines and clone raised against each peptide were examined for the ability to recognize target cells that express WDHD1 and HLA-A*2402 molecule. […] COS7 cells transfected with either full length of WDHD1 or HLA-A* 2402 were prepared as the controls.

[5] = tested on: COS7 cells transfected with either full length of WDHD1 or HLA-A*2402; assay: Specific CTL activity against control target cells; assay type: cell-based, African green monkey; conditions: COS7 expressing either HLA-A*2402 or WDHD1 only
Description: as §2, §3

Sequence	peptide specific CTL activity, IFN-gamma production [1]	IFN-gamma production of CTL lines [2]	further results
EQFWRSVIF [SEQ ID NO: 19]	potent IFN-gamma production		
GYAICGLAW [SEQ ID NO: 14]	potent IFN-gamma production		
GYSNTATEW [SEQ ID NO: 13]	potent IFN-gamma production	potent IFN-gamma production	IFN-gamma production of CTL clone [3]: potent IFN-gamma production; specific CTL activity of CTL clone [4]: potent CTL activity; also recorded: specific CTL activity; specific CTL activity of CTL clone against controls [5]: no significant specific CTL activity
KQILHGDPL [SEQ ID NO: 8]	potent IFN-gamma production		
KYASRSRKL [SEQ ID NO: 1]			peptide specific CTL activity, IFN-gamma production ([1]; listed as WDHD1-A24-9-798): not observed
RSVIFHNHL [SEQ ID NO: 6]	potent IFN-gamma production		
SYLAWIGFSA [SEQ ID NO: 29]	potent IFN-gamma production	potent IFN-gamma production	
TWSPCGQYL [SEQ ID NO: 12]	potent IFN-gamma production	potent IFN-gamma production	

Source: US9056890B2, “WDHD1 peptides and vaccines including the same” (OncoTherapy Science Inc., priority 2010, dated 2015)
